# Test results: ChEMBL document CHEMBL3232879, “4,5,6,7-Tetrahydro-isoxazolo-[4,5-c]-pyridines as a new class of cytotoxic Hsp90 inhibitors” (Eur J Med Chem, 2014)
# Legend:
# [1] = biological target: Histone deacetylase 1 (Homo sapiens, UniProt Q13547); assay: Inhibition of human HDAC-1 using RHKK(Ac) as substrate
# [2] = biological target: Histone deacetylase 2 (Homo sapiens, UniProt Q92769); assay: Inhibition of human HDAC-2 using RHKK(Ac) as substrate
# [3] = biological target: T1, Histone deacetylase 7 (Homo sapiens, UniProt Q8WUI4); assay: Inhibition of human HDAC-7 using RHKK(Ac) as substrate
# T1 sequence (Q8WUI4 whole entry): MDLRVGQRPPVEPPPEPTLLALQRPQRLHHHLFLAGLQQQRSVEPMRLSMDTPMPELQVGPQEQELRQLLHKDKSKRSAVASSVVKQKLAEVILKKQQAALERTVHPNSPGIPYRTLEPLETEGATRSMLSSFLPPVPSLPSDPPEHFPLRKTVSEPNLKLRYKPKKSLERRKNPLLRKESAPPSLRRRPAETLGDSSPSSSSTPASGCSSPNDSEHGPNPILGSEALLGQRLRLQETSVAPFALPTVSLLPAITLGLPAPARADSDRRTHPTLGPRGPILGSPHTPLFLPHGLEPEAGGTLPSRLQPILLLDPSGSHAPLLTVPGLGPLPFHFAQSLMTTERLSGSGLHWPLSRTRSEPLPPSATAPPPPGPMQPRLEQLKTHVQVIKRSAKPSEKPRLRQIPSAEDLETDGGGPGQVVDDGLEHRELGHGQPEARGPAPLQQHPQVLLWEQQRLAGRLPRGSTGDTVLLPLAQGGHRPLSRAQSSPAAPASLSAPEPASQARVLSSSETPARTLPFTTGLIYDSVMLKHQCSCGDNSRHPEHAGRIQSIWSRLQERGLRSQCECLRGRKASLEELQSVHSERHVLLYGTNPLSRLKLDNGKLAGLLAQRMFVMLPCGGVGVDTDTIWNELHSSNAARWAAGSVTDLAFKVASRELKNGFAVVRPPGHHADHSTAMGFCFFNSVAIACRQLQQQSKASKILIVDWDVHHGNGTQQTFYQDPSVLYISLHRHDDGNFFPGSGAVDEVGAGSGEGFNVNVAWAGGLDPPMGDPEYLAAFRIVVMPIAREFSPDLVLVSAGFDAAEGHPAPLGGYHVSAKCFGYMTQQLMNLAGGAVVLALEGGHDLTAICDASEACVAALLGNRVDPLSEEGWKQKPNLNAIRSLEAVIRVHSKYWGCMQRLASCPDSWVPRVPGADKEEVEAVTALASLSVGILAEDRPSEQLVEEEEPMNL
# [4] = biological target: T2, Polyamine deacetylase HDAC10 (Homo sapiens, UniProt Q969S8); assay: Inhibition of human HDAC-10 using RHKK(Ac) as substrate
# T2 sequence (Q969S8 whole entry): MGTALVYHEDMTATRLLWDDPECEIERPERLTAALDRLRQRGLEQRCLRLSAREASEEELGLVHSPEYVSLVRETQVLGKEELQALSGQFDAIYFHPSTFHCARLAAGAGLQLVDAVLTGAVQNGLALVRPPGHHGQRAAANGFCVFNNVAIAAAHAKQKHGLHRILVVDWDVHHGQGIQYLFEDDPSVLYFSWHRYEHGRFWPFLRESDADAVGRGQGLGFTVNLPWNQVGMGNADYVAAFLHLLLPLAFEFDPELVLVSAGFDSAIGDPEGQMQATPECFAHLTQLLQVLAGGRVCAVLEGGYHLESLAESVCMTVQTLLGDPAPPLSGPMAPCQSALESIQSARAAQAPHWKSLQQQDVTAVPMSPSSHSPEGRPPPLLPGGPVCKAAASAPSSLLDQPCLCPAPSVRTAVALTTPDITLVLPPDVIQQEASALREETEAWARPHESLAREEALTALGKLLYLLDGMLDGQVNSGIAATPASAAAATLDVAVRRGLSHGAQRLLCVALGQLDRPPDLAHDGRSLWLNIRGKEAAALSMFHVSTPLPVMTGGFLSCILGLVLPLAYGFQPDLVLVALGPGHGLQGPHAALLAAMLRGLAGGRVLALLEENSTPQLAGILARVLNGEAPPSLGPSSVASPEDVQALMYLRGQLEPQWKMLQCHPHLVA
# Histone deacetylase 2, sequence (Q92769 whole entry): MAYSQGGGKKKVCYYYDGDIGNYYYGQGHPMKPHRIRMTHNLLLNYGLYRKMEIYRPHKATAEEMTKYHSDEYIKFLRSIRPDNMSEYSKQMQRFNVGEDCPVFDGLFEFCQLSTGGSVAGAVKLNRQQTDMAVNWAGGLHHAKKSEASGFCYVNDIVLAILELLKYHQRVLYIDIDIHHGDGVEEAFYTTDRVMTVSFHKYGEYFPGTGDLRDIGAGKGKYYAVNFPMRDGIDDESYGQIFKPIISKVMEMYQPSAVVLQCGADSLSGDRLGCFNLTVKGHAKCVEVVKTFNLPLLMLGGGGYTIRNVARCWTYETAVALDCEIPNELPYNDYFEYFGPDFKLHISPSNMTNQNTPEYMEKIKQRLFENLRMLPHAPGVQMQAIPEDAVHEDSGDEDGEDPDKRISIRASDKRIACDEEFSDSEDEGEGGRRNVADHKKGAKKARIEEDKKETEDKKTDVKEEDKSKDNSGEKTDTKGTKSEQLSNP
# Histone deacetylase 1, sequence (Q13547 whole entry): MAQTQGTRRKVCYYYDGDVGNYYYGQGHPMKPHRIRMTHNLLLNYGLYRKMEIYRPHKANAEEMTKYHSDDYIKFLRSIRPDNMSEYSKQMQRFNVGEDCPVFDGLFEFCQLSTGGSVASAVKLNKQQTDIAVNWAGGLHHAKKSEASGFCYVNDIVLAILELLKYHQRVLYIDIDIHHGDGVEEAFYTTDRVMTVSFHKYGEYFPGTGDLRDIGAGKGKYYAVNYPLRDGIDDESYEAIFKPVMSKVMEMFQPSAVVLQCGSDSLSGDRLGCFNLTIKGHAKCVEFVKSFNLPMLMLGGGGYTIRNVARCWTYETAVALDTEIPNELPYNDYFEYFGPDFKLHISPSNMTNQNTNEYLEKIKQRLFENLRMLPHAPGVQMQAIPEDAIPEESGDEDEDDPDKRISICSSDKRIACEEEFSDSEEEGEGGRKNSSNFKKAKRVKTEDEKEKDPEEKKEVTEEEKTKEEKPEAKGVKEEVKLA
smiles,measurement,setting,value
CC(C)c1cc(C(=O)N2CCc3onc(C(=O)NCCCCCCC(=O)NO)c3C2)c(O)cc1O,IC50,[1],2.03 µM
same,IC50,[2],9.49 µM
same,IC50,[3],2.51 µM
same,IC50,[4],0.886 µM
